Laboratory results taken from US10259809B2, “Fluorinated imidazo[4,5-C]quinoline derivatives as inhibitors of bromodomain containing proteins” (Trillium Therapeutics Inc., priority 2015, dated 2019).
Structures can show the parent of a compound that is named as a salt.

Tests used:
BRD3-1: Domain 1 of BRD3 = biological target: T1, BRD3-1: Domain 1 of BRD3 (Homo sapiens, UniProt Q15059); assay: Bromodomain binding assay (Example 6), BRD3-1
T1 construct: BRD3-1: Domain 1 of BRD3
Procedure: (§1) The binding of the compounds of the application to bromodomains BRD2, BRD3 and BRD4 was assessed using a time resolved fluorescent resonance energy transfer binding assay (Alpha Screen Technology), that measures the binding of an acetylated histone peptide to the bromodomain protein.
(§2) The bromodomain protein, histone peptide and a variable concentration of test compound were incubated together to reach thermodynamic equilibrium.

BRD2-1: Domain 1 of BRD2 = biological target: T2, BRD2-1: Domain 1 of BRD2 (Homo sapiens, UniProt P25440); assay: Bromodomain binding assay (Example 6), BRD2-1
T2 construct: BRD2-1: Domain 1 of BRD2
Procedure: as §1, §2

BRD3-1 = biological target: T3, BRD3-1 (Homo sapiens, UniProt Q15059); assay: BET Bromodomain AlphaScreen assay (Example 9), BRD3-1; type: binding
T3 construct: BRD3-1: Domain 1 of BRD3
Procedure: (§3) The reader assay was a binding assay using the AlphaScreen technology fluorescence energy resonance transfer (FRET) assay. The biotinylated peptide binding to the reader domain of His-tagged protein is monitored by the singlet oxygen transfer from the Streptavidin-coated donor beads to the AlphaScreen Ni-chelate acceptor beads.
(§4) Reaction buffer: 50 mM Hepes, pH7.5, 100 mM NaCl, 0.05% CHAPS, 0.1% BSA, and 1% DMSO (Buffer and DMSO concentration may be different for different reader).
(§5) Biotin-peptide; sequences were different for different targets.
(§6) Reaction Procedure: • 1. Deliver 4× BRD in wells of reaction plate except No BRD control wells. Add buffer instead. • 2. Deliver compounds in 100% DMSO into the BRD mixture by Acoustic technology (Echo550; nanoliter range). Spin down and pre-incubation for 30 min. • 3. Deliver 4× Ligand. Spin and shake. • 4. Incubate for 30 min at room temperature with gentle shaking. • 5. Deliver 4× donor beads. Spin and shake. • 6. Deliver 4× acceptor beads. Spin and shake. Then gentle shaking in the dark for 60 min. • 7.

BRD2-1 = biological target: T4, BRD2-1 (Homo sapiens, UniProt P25440); assay: BET Bromodomain AlphaScreen assay (Example 9), BRD2-1; type: binding
T4 construct: BRD2-1: Domain 1 of BRD2
Procedure: as §3, §4, §5, §6

[1] = biological target: T5, BRD4-FL: Full length BRD4 (Homo sapiens, UniProt O60885); assay: Bromodomain binding assay (Example 6), BRD4-FL
T5 construct: BRD4-FL: Full length BRD4
Procedure: as §1, §2

BRD4-FL = biological target: T6, BRD4-FL (Homo sapiens, UniProt O60885); assay: BET Bromodomain AlphaScreen assay (Example 9), BRD4-FL; type: binding
T6 construct: BRD4-FL: Full length BRD4
Procedure: as §3, §4, §5, §6

[2] = Liver microsome stability, mouse; type: in vitro ADME, mouse (CD-1; details: male, CD-1, mouse, pooled mouse liver microsomes, 1 μM compound, 0.5 mg/ml microsomes, 37° C., read-out: % recovery Mouse Liver Microsomes (MLM) (30 min)
Procedure: (§7) Working stocks were initially diluted to a concentration of 40.0 μM in 0.1 M potassium phosphate buffer before addition to the reaction vials. Pooled mouse (CD-1, male) or human (50 donors) liver microsomes were utilized at a final concentration of 0.5 mg/ml. Duplicate wells were used for each time point (0 and 30 minutes). Reactions were carried out at 37° C. in a shaker, and the final concentration of DMSO was kept constant at 0.01%. The final volume for each reaction was 100 μL, which includes the addition of an NADPH-Regeneration solution (NRS) mix. This NRS mix was comprised of glucose 6-phosphate dehydrogenase (0.4 U/mL), NADP+ (1.3 mM), MgCl2 (3.3 mM), and glucose 6-phosphate (3.3 mM) in assay mixtures. Upon completion of the 30 minute time point, reactions were terminated by the addition of 1.5-volumes (150 μL) of ice-cold, acetonitrile with 0.5% formic acid and internal standard. Samples were then centrifuged at 4,000 rpm for 10 minutes to remove debris and precipitated protein. Approximately 150 μL of supernatant was subsequently transferred to a new 96 well microplate for LC/MS analysis.
(§8) Narrow-window mass extraction LC/MS analysis was performed for all samples using a Waters Xevo quadrupole time-of-flight (QTof) mass spectrometer and an ACQUITY UPLC system, to determine relative peak areas of parent compound.

[3] = Liver microsome stability, human; type: in vitro ADME; details: pooled human liver microsomes (50 donors), 1 μM compound, 0.5 mg/ml microsomes, 37° C., read-out: % recovery Human Liver Microsomes (HLM) (30 min)
Procedure: as §7, §8

[4] = tested on: MM.1S subcutaneous human multiple myeloma xenograft; assay: MM.1S subcutaneous human multiple myeloma xenograft model, efficacy; type: in vivo, NOD SCID mice
Procedure: • Species & Strain: NOD SCID mice • Age: 7-8 week • Total Number: 50 mice plus 40% spare • Sex: Female • Body Weight: 18 to 22 g Animal Maintenance
Groups and treatments started when the mean tumor volume reached about 100-150 mm^3. Based on the tumor volume, mice were randomly assigned to respective groups using a computer-generated randomization procedure.
Each mouse was inoculated subcutaneously on the right flank with MM.1S tumor cells (5×10^6) in 0.1 ml of RPMI-1640 without serum (mixed matrigel) for tumor development. The treatment started when the mean tumor size reached approximately 100-150 mm^3. Mice were then randomized into groups.
The measurement of tumor size was conducted twice weekly with a caliper and the tumor volume (mm^3) was estimated using the formula: TV=a×b^2/2, where “a” and “b” are long and short diameters of a tumor, respectively. The TVs were used for calculation of the tumor growth inhibition (TGI, an indicator of antitumor effectiveness) value using the formula: TGI=(1−T/C)×100%, where “T” and “C” is the mean relative volumes (% tumor growth) of the tumors in the treated and the control groups, respectively, on a given day after tumor inoculation. The experiment terminated when the mean tumor volume exceeded 2000 mm^3 or severe body weight loss was observed.

T2 sequence (P25440 74-180 limits assumed): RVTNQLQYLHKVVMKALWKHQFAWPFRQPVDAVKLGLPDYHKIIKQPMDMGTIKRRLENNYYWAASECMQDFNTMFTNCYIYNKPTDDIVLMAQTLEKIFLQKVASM
T4 sequence (P25440 74-180 limits assumed): as above
T3 sequence (Q15059 34-140 limits assumed): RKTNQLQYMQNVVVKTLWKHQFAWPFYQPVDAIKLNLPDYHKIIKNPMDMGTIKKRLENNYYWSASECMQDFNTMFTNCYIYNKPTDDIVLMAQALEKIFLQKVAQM
T1 sequence (Q15059 34-140 limits assumed): as above

Compound | IC50 (BRD3-1: Domain 1 of BRD3) | IC50 (BRD2-1: Domain 1 of BRD2) | EC50 (BRD3-1) | EC50 (BRD2-1) | IC50 [1] | EC50 (BRD4-FL) | recovery at 30 min, 1 μM [2] | recovery at 30 min, 1 μM [3] | tumor volume ([4]; 10 mg/kg, 30 mg/kg and 60 mg/kg PO QD × 21, 21 days post administration, dose dependent) | tumor volume compared with carfilzomib (CFZ) ([4]; 30 mg/kg and 60 mg/kg PO, 21 days post administration, CFZ 5 mg/kg IV) | antitumor activity ([4]; low-dose 10 mg/kg PO)
COc1cc2c(cc1-c1c(C)noc1C)ncc1nc(C3CCOCC3)n([C@@H](C)COC(F)F)c12 [2(a), 4-[1-[(1S)-2-(difluoromethoxy)-1-methyl-ethyl]-8-methoxy-2-tetrahydropyran-4-yl-imidazo[4,5-c]quinolin-7-yl]-3,5-dimethyl-isoxazole] | 44 nM | 63 nM | 43.8 nM | 63.4 nM | 40 nM | 40.4 nM | – | – | – | – | –
COc1cc2c(cc1-c1c(C)noc1C)ncc1nc(CN3CC(F)(F)C3)n([C@H](C)COC(F)F)c12 [3(j)] | – | – | – | – | – | – | 8% | 6.9% | – | – | –
COc1cc2c(cc1-c1c(C)noc1C)ncc1nc(CN(C)C)n([C@H](C)COC(F)F)c12 [3(b), 1-[1-[(1R)-2-(difluoromethoxy)-1-methyl-ethyl]-7-(3,5-dimethylisoxazol-4-yl)-8-methoxy-imidazo[4,5-c]quinolin-2-yl]-N,N-dimethyl-methanamine] | 18 nM | 32 nM | – | – | 32 nM | – | 0.5% | 13.7% | – | – | –
COc1cc2c(cc1-c1c(C)noc1C)ncc1nc(C3CCCCC3)n([C@H](C)COC(F)F)c12 [2(j), 4-[2-cyclohexyl-1-[(1R)-2-(difluoromethoxy)-1-methyl-ethyl]-8-methoxy-imidazo[4,5-c]quinolin-7-yl]-3,5-dimethyl-isoxazole] | – | – | – | – | – | – | 7% | 1.5% | – | – | –
COc1cc2c(cc1-c1c(C)noc1C)ncc1nc(CN3CCC(F)(F)C3)n([C@H](C)COC(F)F)c12 [3(i)] | – | – | – | – | – | – | 10.4% | 7.4% | – | – | –
COc1cc2c(cc1-c1c(C)noc1C)ncc1nc(C3CCOCC3)n(CCOC(F)F)c12 [2(n), 4-[1-[2-(difluoromethoxy)ethyl]-8-methoxy-2-tetrahydropyran-4-yl-imidazo[4,5-c]quinolin-7-yl]-3,5-dimethyl-isoxazole] | – | – | – | – | – | – | 74.8% | 58.1% | – | – | –
CNCc1nc2cnc3cc(-c4c(C)noc4C)c(OC)cc3c2n1[C@H](C)COC(F)F [3(g)] | – | – | – | – | – | – | 0.1% | 58.5% | – | – | –
COc1cc2c(cc1-c1c(C)noc1C)ncc1nc(CN(C)C)n([C@H](C)COC(F)F)c12 [3(b).HCl] | – | – | 17.6 nM | 32.3 nM | – | 31.7 nM | – | – | – | – | –
COc1cc2c(cc1-c1c(C)noc1C)ncc1nc(CN3CCC(F)(F)CC3)n([C@H](C)COC(F)F)c12 [3(f), 4-[1-[(1R)-2-(difluoromethoxy)-1-methyl-ethyl]-2-[(4,4-difluoro-1-piperidyl)methyl]-8-methoxy-imidazo[4,5-c]quinolin-7-yl]-3,5-dimethyl-isoxazole] | – | – | – | – | – | – | 2.6% | 0.6% | – | – | –
COc1cc2c(cc1-c1c(C)noc1C)ncc1nc(C3CCOCC3)n([C@H](C)COC(F)F)c12 [2(g), 4-[1-[(1R)-2-(difluoromethoxy)-1-methyl-ethyl]-8-methoxy-2-tetrahydropyran-4-yl-imidazo[4,5-c]quinolin-7-yl]-3,5-dimethyl-isoxazole] | 17 nM | 24 nM | 2.76 nM | 6.89 nM | 14 nM | 7.17 nM | 55.5% | 43% | significantly reduced the tumor volume | reduced the tumor volume to a greater extent than carfilzomib | moderate antitumor activity

Second part, led by results:

IC50 (BRD3-1: Domain 1 of BRD3) | IC50 (BRD2-1: Domain 1 of BRD2) | EC50 (BRD3-1) | EC50 (BRD2-1) | IC50 [1] | EC50 (BRD4-FL) | recovery at 30 min, 1 μM [2] | recovery at 30 min, 1 μM [3] | Compound | tumor volume ([4]; 10 mg/kg, 30 mg/kg and 60 mg/kg PO QD × 21, 21 days post administration, dose dependent) | tumor volume compared with carfilzomib (CFZ) ([4]; 30 mg/kg and 60 mg/kg PO, 21 days post administration, CFZ 5 mg/kg IV) | antitumor activity ([4]; low-dose 10 mg/kg PO)
– | – | – | – | – | – | 0.6% | 0.1% | COc1cc2c(cc1-c1c(C)noc1C)ncc1nc(C3CCCC3)n([C@H](C)COC(F)F)c12 [2(k), 4-[2-cyclopentyl-1-[(1R)-2-(difluoromethoxy)-1-methyl-ethyl]-8-methoxy-imidazo[4,5-c]quinolin-7-yl]-3,5-dimethyl-isoxazole] | – | – | –
– | – | 104 nM | 281 nM | – | 406 nM | – | – | COc1cc2c(cc1-c1c(C)noc1C)ncc1nc(C3CCOCC3)n([C@H]3CC[C@H](OC(F)F)CC3)c12 [2(r)] | – | – | –
31 nM | 47 nM | 6.96 nM | 27.3 nM | 21 nM | 46.2 nM | 35.2% | 62.3% | COc1cc2c(cc1-c1c(C)noc1C)ncc1nc(C3CCC(F)(F)CC3)n([C@H](C)COC(F)F)c12 [2(h), 4-[2-(4,4-difluorocyclohexyl)-1-[(1R)-2-(difluoromethoxy)-1-methyl-ethyl]-8-methoxy-imidazo[4,5-c]quinolin-7-yl]-3,5-dimethyl-isoxazole] | – | – | –
10 nM | 19 nM | 10 nM | 19.3 nM | 10 nM | 9.52 nM | 3.7% | 1.9% | COc1cc2c(cc1-c1c(C)noc1C)ncc1nc(CN3CCOCC3)n([C@H](C)COC(F)F)c12 [3(a), 4-[[1-[(1R)-2-(difluoromethoxy)-1-methyl-ethyl]-7-(3,5-dimethylisoxazol-4-yl)-8-methoxy-imidazo[4,5-c]quinolin-2-yl]methyl]morpholine trihydrochloride] | – | – | –
